Test results taken from patent US11951100B2, “Formulations of RBP4 inhibitors and methods of use” (Belite Bio, LLC, priority 2019, dated 2024).
≈ marks a conversion by molar mass, not a printed value. Where “and” joins values, the source holds several entries; their conditions need not be identical. Equal values may be shown once. Read-outs that look alike come from different tables or passages of the source.

Tests used:
[1] = Log D7.4, shake-flask partitioning; assay type: physicochemical; conditions: pH 7.4, shake-flask (Pion, Inc.)
Procedure: Several biopharmaceutically relevant parameters of the API (Compound 1) were obtained for the API. […] Based on these two biopharmaceutical parameters, this compound is possibly a BCS Class II. Solubility enhancement is critical for bioavailability of the API for dosing. Therefore, to overcome the limitation from solubility, several experiments were conducted to assess various solubility enhancement approaches utilized in formulation development

[2] = Equilibrium solubility by HPLC, Form C, ambient temperature; assay type: physicochemical; conditions: for solubility: thermodynamic from solid
Procedure: […] (as a part of feasibility assessment of liquid dosage form in formulation development and dissolution method development), a number of […] […] The equilibrated suspensions were isolated by centrifuge and the filtrates were injected into HPLC to determine equilibrium solubility of the API in each solvent system.

[3] = tested on: Abcd4/rdh8 double knockout mice; assay: Abcd4/rdh8 double knockout mouse model of macular degeneration; assay type: in vivo
Excerpt: FIG. 2 is a graph of bisretinoid A2E (pmol in the eye) and RBP4 (serum) levels for ABCA4−/−RDH8−/− mice either untreated, treated with vehicle, or treated with Compound 1.
FIG. 3 is a graph of outer nuclear layer (ONL) thickness (μm) as a function of distance (μm) from the optic nerve (ONH). ONL is the cell layer consisting of photoreceptor cell bodies (rods and cones). Dry AMD or STGD is often associated with thinning of the ONL and the loss of photoreceptor cells, indicating macular degeneration.
Abcd4/rdh8 double knockout mice were either untreated or treated with Compound 1. Wild type C57BL/6J mice were also used as a normal control. […] (FIG. 2). Diseases such as dry AMD or Stargardt are associated with thinning of the outer nuclear layer (ONL) of the eye and the loss of photoreceptor cells, indicating macular degeneration.

[4] = DSC of crystalline Compound 1; assay type: physicochemical; conditions: ramp 10.0° C./min, 35° C.-275° C.
Procedure: A sample of Compound 1 was analyzed by Differential Scanning Calorimetry using a TA Discovery DSC2500 with RCS90 chiller according to standard instrument procedures provided by manufacturer. Parameters used for the analysis are shown below in Table 3. Two replicates of the experiment were run with reproducible results. The resulting thermogram, shown in FIG. 10B, indicated a melting temperature (Tm) of Compound 1 of about 229° C. and no degradation up to 275° C.

[5] = treated vs untreated Abcd4/rdh8 double knockout mice

logD [1]: 3.23
solubility ([2]; Canola Oil, oil or lipid, Canola Oil, read-out: Solubility by HPLC): 31 µg/mL (≈ 67.9 µM)
solubility ([2]; Capmul MCM, EP, oil or lipid, Capmul MCM, EP, read-out: Solubility by HPLC): 3900 µg/mL (≈ 8540 µM)
solubility ([2]; Capmul MCM, NF, oil or lipid, Capmul MCM, NF, read-out: Solubility by HPLC): 4400 µg/mL (≈ 9640 µM)
solubility ([2]; Captex 300, EP/NF, oil or lipid, Captex 300, EP/NF, read-out: Solubility by HPLC): 64 µg/mL (≈ 140 µM)
solubility ([2]; Captex 355, EP/NF, oil or lipid, Captex 355, EP/NF, read-out: Solubility by HPLC): 49 µg/mL (≈ 107 µM)
solubility ([2]; Castor Oil, oil or lipid, Castor Oil, read-out: Solubility by HPLC): 990 µg/mL (≈ 2170 µM)
solubility ([2]; Corn Oil, oil or lipid, Corn Oil, read-out: Solubility by HPLC): 31 µg/mL (≈ 67.9 µM)
solubility ([2]; FaSSIF, pH 4.96, fassif, FaSSIF, Final pH: 4.96, read-out: Solubility by HPLC): 39 µg/mL (≈ 85.4 µM)
solubility ([2]; FaSSIF, pH 4.99, fassif, FaSSIF, Final pH: 4.99, read-out: Solubility by HPLC): 47 µg/mL (≈ 103 µM)
solubility ([2]; FaSSIF, pH 6.77, fassif, FaSSIF, Final pH: 6.77, read-out: Solubility by HPLC): 5.1 µg/mL (≈ 11.2 µM)
solubility ([2]; FaSSIF, pH 6.78, fassif, FaSSIF, Final pH: 6.78, read-out: Solubility by HPLC): 3.2 µg/mL (≈ 7.01 µM)
solubility ([2]; Gelucire 44/14 1 mg/mL (500× cmc), aqueous with cosolvent or surfactant or cyclodextrin, Gelucire 44/14, 1 mg/mL (500× cmc), read-out: Solubility by HPLC): 0.8 µg/mL (≈ 1.75 µM)
solubility ([2]; Kolliphor HS-15, 35 °C, organic solvent or mixture, Kolliphor HS-15, Stirred at 35° C., read-out: Solubility by HPLC): 2800 µg/mL (≈ 6130 µM)
solubility ([2]; Kolliphor P188 0.4 mM (3.2× cmc), aqueous with cosolvent or surfactant or cyclodextrin, Kolliphor P188, 0.4 mM (3.2× cmc), read-out: Solubility by HPLC): 1.6 µg/mL (≈ 3.51 µM)
solubility ([2]; Kolliphor P188 4 mM (32× cmc), aqueous with cosolvent or surfactant or cyclodextrin, Kolliphor P188, 4 mM (32× cmc), read-out: Solubility by HPLC): 3.1 µg/mL (≈ 6.79 µM)
solubility ([2]; Labrafil M1944CS, oil or lipid, Labrafil M1944CS, read-out: Solubility by HPLC): 280 µg/mL (≈ 613 µM)
solubility ([2]; Labrasol, oil or lipid, Labrasol, read-out: Solubility by HPLC): 1700 µg/mL (≈ 3720 µM)
solubility ([2]; Lecithin 61 mg/mL (100× cmc), aqueous with cosolvent or surfactant or cyclodextrin, Lecithin, 61 mg/mL (100× cmc), read-out: Solubility by HPLC): 53 µg/mL (≈ 116 µM)
solubility ([2]; Miglyol 810, oil or lipid, Miglyol 810, read-out: Solubility by HPLC): 53 µg/mL (≈ 116 µM)
solubility ([2]; Miglyol 812, oil or lipid, Miglyol 812, read-out: Solubility by HPLC): 52 µg/mL (≈ 114 µM)
solubility ([2]; Oleic Acid, oil or lipid, Oleic Acid, read-out: Solubility by HPLC): 390 µg/mL (≈ 854 µM)
solubility ([2]; PEG 400, organic solvent or mixture, PEG 400, read-out: Solubility by HPLC): 2000 µg/mL (≈ 4380 µM)
solubility ([2]; Peceol, oil or lipid, Peceol, read-out: Solubility by HPLC): 1300 µg/mL (≈ 2850 µM)
solubility ([2]; Plurol Oleique CC 497, oil or lipid, Plurol Oleique CC 497, read-out: Solubility by HPLC): 1200 µg/mL (≈ 2630 µM)
solubility ([2]; Sodium Lauryl Sulfate 8.2 mM (cmc), aqueous with cosolvent or surfactant or cyclodextrin, Sodium Lauryl Sulfate, 8.2 mM (cmc), read-out: Solubility by HPLC): 150 µg/mL (≈ 329 µM)
solubility ([2]; Sodium Lauryl Sulfate 41 mM (5× cmc), aqueous with cosolvent or surfactant or cyclodextrin, Sodium Lauryl Sulfate, 41 mM (5× cmc), read-out: Solubility by HPLC): 1600 µg/mL (≈ 3510 µM)
solubility ([2]; Sodium Lauryl Sulfate 82 mM (10× cmc), aqueous with cosolvent or surfactant or cyclodextrin, Sodium Lauryl Sulfate, 82 mM (10× cmc), read-out: Solubility by HPLC): 2400 µg/mL (≈ 5260 µM)
Solubility by HPLC ([2]; Sodium Lauryl Sulfate, 0.82M (100× cmc)): 17 mg/mL and 19 mg/mL
solubility ([2]; Soybean Oil, oil or lipid, Soybean Oil, read-out: Solubility by HPLC): 30 µg/mL (≈ 65.7 µM)
solubility ([2]; Transcutol HP, organic solvent or mixture, Transcutol HP, read-out: Solubility by HPLC): 4700 µg/mL (≈ 10300 µM)
solubility ([2]; Triacetic, organic solvent or mixture, Triacetic, read-out: Solubility by HPLC): 430 µg/mL (≈ 942 µM)
solubility ([2]; Tween 80, 1.2 mM (100× CMC), aqueous with cosolvent or surfactant or cyclodextrin, Tween 80, 1.2 mM (100× cmc), read-out: Solubility by HPLC): 560 µg/mL (≈ 1230 µM)
solubility ([2]; Vitamin E TPGS 0.2 wt % (10× cmc), aqueous with cosolvent or surfactant or cyclodextrin, Vitamin E TPGS, 0.2 wt % (10× cmc), read-out: Solubility by HPLC): 20 µg/mL (≈ 43.8 µM)
solubility ([2]; Vitamin E TPGS 2 wt % (100× cmc), aqueous with cosolvent or surfactant or cyclodextrin, Vitamin E TPGS, 2 wt % (100× cmc), read-out: Solubility by HPLC): 40 µg/mL (≈ 87.6 µM)
solubility ([2]; Water, pH 8.99, water, Water, Final pH: 8.99, read-out: Solubility by HPLC): 1 µg/mL (≈ 2.19 µM)
solubility ([2]; ethanol, organic solvent or mixture, Ethanol, read-out: Solubility by HPLC): 3100 µg/mL (≈ 6790 µM)
solubility ([2]; organic solvent or mixture, EtOH, PEG 400, Propylene glycol, Capmul MCM NF, Kolliphor EL, Capmul MCM EP, Plurol Oleique CC 497, Peceol, Labrasol, SLS at 5× and 10×CMC, Transcutol HP, read-out: solubility of the API): 1000 to 5000 µg/mL (≈ 2190 to 11000 µM)
solubility ([2]; pH 1.0 buffer, pH 1, simulated gastric fluid, pH 1.0 buffer, Final pH: 0.89, read-out: Solubility by HPLC): 1.2 µg/mL (≈ 2.63 µM)
solubility ([2]; pH 4.5 buffer, pH 4.5, aqueous buffer, pH 4.5 buffer, Final pH: 4.80, read-out: Solubility by HPLC): 1.1 µg/mL (≈ 2.41 µM)
solubility ([2]; pH 6.8 buffer, pH 6.8, aqueous buffer, pH 6.8 buffer, Final pH: 6.50, read-out: Solubility by HPLC): 0.8 µg/mL (≈ 1.75 µM)
solubility ([2]; propylene glycol, organic solvent or mixture, Propylene Glycol, read-out: Solubility by HPLC): 2600 µg/mL (≈ 5700 µM)
solubility ([2]; sodium lauryl sulfate solution, 0.82 M (100× CMC), aqueous with cosolvent or surfactant or cyclodextrin, Sodium Lauryl Sulfate, 0.82M (100× cmc), read-out: Solubility by HPLC): > 10000 µg/mL
solubility ([2]; sulfobutylether β-cyclodextrin, 40 wt %, aqueous with cosolvent or surfactant or cyclodextrin, Sulfobutylether β-CD, 40 wt %, read-out: Solubility by HPLC): 750 µg/mL (≈ 1640 µM)
no degradation up to (DSC) [4]: 275 °C
Compound: CC(=O)N1CCc2c(C(=O)N3CCC(c4ccc(F)c(F)c4C(F)(F)F)CC3)n[nH]c2C1 [Compound 1, 1-(3-(4-(3,4-difluoro-2-(trifluoromethyl)phenyl)piperidine-1-carbonyl)-1,4,5,7-tetrahydro-6H-pyrazolo[3,4-c]pyridin-6-yl)ethan-1-one]
reduction in bisretinoid accumulation ([3]; bisretinoid A2E in the eye, ABCA4−/−RDH8−/− mice treated with Compound 1, p=0.003, unpaired t-test): 80%
outer nuclear layer (ONL) thickness ([3]; diseased group treated with Compound 1 vs diseased group): preserved
levels of A2E in the retina [3, 5]: significantly lower
levels of RBP4 in serum [3, 5]: lower
